# Experimental data as given in ChEMBL document CHEMBL1201862, “PubChem BioAssay data set” (2004).
# Activity calls are given as the source filed them.
# Experiments:
# [1] = THP-1 cell cytotoxicity, dose response, cytotoxicity control for non-replicating M. tuberculosis project (AID 489025); type: functional
# cells [2] = type: functional
# Cytochrome P450 3A4 [3] = molecular target: T1, Cytochrome P450 3A4 (Homo sapiens, UniProt P08684); conditions: Potency
# [4] = molecular target: T2, Ubiquitin-conjugating enzyme E2 N (Homo sapiens, UniProt P61088); type: functional;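 note: Dose-response confirmation in a TR-FRET assay detecting UBC13-driven polyubiquitin chain formation, inhibition measured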
# T2 sequence (P61088 whole entry): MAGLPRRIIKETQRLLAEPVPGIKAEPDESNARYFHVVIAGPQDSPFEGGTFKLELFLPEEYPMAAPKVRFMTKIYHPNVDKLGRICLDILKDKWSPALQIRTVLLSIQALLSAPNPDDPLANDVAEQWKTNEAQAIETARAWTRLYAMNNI
# [5] = molecular target: T3, High affinity choline transporter 1 (Homo sapiens, UniProt Q9GZV3); experiment: human choline transporter blockers, potency – cell-based, 5-point CRC, membrane potential dye, dose response (AID 504840); type: functional
# T3 sequence (Q9GZV3 whole entry): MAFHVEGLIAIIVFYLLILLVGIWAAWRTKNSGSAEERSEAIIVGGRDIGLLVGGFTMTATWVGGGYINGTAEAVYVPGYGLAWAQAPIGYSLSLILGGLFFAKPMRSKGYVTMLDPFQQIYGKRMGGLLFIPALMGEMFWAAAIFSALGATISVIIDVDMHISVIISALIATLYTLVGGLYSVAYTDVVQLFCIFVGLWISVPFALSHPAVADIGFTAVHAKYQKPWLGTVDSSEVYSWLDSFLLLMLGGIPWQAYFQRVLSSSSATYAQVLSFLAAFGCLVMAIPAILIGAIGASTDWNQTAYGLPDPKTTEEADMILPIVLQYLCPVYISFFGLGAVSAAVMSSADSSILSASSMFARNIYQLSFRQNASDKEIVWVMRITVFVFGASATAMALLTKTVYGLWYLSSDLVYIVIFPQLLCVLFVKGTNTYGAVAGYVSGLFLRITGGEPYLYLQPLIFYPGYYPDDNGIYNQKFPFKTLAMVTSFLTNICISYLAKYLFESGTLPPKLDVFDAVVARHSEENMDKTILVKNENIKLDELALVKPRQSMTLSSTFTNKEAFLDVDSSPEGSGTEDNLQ
# Melanocortin receptor 4 = Melanocortin receptor 4 (Homo sapiens, UniProt P32245); experiment: inhibitors of MC4R cAMP signaling – cell-based, TR-FRET, biased antagonists, dose response (AID 602298); type: functional;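 note: antagonist potency against agonist-stimulated cAMP production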
# Sequence of Melanocortin receptor 4 (P32245 whole entry): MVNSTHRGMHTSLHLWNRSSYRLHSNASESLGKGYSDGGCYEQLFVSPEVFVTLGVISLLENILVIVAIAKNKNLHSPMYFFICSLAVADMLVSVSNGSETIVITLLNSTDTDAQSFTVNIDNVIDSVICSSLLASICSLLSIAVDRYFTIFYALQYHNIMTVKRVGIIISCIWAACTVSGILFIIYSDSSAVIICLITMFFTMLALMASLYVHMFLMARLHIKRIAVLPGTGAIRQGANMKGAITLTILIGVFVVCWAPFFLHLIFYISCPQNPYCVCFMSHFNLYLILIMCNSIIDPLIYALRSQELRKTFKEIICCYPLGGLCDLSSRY
# [6] = cAMP pathway inhibition in counterscreen cell line – TR-FRET cAMP detection, counter-screen for MC4R biased antagonist project, dose response (AID 602305); type: functional, cell-based;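 note: U2OS cells stimulated with forskolin near its EC80 as the cAMP inducer; potency is for inhibition of forskolin-stimulated cAMP signaling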
# Genome polyprotein = Genome polyprotein (dengue virus type 2, UniProt P29990); experiment: flavivirus cap methylation enzyme inhibition – biochemical, confirmation dose response, primary screen (AID 588689); type: functional
# Sequence of Genome polyprotein (P29990 2492-3391 limits assumed): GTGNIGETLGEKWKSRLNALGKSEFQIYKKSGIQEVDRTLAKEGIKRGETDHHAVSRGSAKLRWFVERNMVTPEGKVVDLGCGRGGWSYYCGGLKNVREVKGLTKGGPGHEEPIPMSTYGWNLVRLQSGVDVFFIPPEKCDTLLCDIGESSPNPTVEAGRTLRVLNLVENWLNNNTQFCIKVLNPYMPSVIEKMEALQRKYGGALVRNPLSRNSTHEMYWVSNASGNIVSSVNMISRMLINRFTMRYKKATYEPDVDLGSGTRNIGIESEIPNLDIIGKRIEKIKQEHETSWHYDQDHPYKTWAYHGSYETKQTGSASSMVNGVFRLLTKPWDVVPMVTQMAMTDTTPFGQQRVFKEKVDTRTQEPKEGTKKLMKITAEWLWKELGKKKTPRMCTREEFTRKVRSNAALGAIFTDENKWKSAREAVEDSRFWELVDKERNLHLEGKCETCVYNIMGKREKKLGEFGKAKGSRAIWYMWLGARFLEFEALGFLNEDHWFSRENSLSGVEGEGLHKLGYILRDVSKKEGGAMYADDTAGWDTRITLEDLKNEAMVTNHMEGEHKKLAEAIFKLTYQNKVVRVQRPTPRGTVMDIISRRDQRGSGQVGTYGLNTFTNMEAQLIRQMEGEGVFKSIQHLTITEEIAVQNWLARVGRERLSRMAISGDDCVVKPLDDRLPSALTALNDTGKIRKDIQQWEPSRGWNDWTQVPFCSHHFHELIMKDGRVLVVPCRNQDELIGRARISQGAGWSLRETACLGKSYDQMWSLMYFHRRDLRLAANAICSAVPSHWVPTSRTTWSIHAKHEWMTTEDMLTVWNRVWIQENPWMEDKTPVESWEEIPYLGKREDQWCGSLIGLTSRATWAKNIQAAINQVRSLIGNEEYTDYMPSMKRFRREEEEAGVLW
# cells [7] = type: functional, cell-based
# cells [8] = type: functional, cell-based; remark: listed apart in the source
# HeLa = experiment: viability loss in HeLa cells – cell-based, ATP luminescence, cherry-pick samples, cytotoxicity control, dose response (AID 687004); type: functional; conditions: Homo sapiens
# [9] = molecular target: T4, Apoptotic protease-activating factor 1 (Homo sapiens, UniProt O14727); type: functional
# T4 sequence (O14727 whole entry): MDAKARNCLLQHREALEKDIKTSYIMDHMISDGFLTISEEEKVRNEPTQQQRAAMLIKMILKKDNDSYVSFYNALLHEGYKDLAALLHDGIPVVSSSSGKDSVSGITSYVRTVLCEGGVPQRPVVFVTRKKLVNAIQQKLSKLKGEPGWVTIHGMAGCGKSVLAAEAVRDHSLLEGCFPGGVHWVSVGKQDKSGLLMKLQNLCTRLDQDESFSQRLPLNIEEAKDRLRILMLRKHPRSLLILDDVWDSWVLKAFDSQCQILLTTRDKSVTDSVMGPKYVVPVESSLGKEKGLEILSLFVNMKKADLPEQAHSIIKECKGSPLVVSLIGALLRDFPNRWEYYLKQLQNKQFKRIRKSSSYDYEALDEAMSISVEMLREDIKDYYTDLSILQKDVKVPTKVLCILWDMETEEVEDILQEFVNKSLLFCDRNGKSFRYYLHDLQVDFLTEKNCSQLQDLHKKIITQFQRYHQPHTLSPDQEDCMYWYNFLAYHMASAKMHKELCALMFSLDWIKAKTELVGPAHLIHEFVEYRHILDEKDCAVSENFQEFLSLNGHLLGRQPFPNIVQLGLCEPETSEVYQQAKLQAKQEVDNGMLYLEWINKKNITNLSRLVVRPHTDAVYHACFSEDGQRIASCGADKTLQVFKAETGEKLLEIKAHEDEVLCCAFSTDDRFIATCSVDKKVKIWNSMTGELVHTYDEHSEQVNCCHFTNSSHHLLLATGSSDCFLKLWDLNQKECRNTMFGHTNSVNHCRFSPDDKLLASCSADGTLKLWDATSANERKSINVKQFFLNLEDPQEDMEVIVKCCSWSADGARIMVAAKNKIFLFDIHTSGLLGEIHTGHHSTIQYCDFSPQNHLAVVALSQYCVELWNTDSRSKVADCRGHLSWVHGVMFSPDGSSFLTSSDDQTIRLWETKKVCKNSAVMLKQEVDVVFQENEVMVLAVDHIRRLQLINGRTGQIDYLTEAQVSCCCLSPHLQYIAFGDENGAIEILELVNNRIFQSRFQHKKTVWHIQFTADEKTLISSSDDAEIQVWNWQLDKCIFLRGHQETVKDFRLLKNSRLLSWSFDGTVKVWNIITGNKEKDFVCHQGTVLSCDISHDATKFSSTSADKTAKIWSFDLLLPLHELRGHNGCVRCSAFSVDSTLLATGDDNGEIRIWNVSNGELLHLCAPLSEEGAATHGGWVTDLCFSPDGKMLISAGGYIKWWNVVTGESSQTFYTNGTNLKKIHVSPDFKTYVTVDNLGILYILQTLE
# [10] = molecular target: Glucose-6-phosphate 1-dehydrogenase (Homo sapiens, UniProt P11413); experiment: inhibition of Homo sapiens G6PD, dose series – biochemical, fluorescence, selectivity assay for P. falciparum G6PD inhibitor project, dose response (AID 504792); type: functional
# Sequence of Glucose-6-phosphate 1-dehydrogenase (P11413 whole entry): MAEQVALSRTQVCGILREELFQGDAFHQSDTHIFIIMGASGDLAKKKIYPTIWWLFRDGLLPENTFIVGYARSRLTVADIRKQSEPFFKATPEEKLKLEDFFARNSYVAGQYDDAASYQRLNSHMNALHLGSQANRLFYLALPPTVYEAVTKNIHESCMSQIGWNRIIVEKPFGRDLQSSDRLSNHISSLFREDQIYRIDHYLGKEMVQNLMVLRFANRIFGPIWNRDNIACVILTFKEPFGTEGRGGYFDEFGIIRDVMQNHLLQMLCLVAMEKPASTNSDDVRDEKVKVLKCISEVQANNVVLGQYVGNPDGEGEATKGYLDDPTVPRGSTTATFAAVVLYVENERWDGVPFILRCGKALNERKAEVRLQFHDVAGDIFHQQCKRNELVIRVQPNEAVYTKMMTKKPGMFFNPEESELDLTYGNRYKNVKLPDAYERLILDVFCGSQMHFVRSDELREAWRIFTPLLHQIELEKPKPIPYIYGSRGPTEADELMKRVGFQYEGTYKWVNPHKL
# Aminopeptidase N = molecular target: T5, Aminopeptidase N (Plasmodium falciparum FcB1/Columbia, UniProt O96935); experiment: malaria alanyl aminopeptidase activity blockers – biochemical, fluorogenic H-Leu-NHMec substrate, 1536-well (AID 1445); set-up: species or system Plasmodium falciparum 3D7, 3D7
# T5 sequence (O96935 whole entry): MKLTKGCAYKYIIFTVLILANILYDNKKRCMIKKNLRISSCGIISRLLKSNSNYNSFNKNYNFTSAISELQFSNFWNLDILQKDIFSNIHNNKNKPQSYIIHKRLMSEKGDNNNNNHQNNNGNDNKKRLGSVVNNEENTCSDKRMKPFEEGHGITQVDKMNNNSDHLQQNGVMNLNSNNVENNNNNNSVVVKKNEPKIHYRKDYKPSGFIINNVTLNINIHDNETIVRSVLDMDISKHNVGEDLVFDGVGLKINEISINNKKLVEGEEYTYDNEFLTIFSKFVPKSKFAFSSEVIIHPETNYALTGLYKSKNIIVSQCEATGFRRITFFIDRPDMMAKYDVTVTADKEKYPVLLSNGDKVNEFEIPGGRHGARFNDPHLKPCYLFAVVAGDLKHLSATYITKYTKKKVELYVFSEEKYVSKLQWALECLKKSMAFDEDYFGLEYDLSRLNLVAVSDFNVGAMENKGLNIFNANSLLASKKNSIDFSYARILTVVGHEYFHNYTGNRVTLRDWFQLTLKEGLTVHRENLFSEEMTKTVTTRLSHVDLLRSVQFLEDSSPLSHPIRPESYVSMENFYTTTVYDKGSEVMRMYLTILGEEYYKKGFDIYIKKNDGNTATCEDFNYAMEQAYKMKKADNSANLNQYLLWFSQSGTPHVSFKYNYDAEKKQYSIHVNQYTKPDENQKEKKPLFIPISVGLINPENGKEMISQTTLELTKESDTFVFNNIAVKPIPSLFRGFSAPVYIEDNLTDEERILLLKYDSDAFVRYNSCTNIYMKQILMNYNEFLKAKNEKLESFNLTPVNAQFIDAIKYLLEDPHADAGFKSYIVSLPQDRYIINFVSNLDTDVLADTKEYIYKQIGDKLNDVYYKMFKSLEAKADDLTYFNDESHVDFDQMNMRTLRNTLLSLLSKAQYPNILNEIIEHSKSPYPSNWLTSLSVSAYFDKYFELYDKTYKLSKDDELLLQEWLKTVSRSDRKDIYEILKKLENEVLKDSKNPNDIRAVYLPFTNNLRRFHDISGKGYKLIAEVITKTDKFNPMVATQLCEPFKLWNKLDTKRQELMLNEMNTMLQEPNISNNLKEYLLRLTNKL
# [11] = molecular target: T6, RNA-binding protein pos-1 (Caenorhabditis elegans, UniProt G5EF15); experiment: disruptors of C. elegans POS-1 RNA interaction – biochemical, fluorescence polarization, dose response (AID 1964);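 note: purified POS-1 fused to maltose binding protein made in E. coli; potency of compounds blocking POS-1 binding to fluorescent RNA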
# T6 sequence (G5EF15 whole entry): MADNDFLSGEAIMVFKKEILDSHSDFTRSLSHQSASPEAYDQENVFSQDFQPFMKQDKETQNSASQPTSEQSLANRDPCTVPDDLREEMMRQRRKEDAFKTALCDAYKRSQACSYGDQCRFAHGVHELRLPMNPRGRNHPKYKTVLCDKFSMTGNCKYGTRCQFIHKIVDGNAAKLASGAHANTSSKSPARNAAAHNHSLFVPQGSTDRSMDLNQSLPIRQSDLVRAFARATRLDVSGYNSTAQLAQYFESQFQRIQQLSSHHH
# [12] = molecular target: T7, Zinc finger protein mex-5 (Caenorhabditis elegans, UniProt Q9XUB2); experiment: potency of MEX-5 RNA-binding blockers – biochemical, C. elegans, fluorescence polarization, dose response (AID 1960)
# T7 sequence (Q9XUB2 whole entry): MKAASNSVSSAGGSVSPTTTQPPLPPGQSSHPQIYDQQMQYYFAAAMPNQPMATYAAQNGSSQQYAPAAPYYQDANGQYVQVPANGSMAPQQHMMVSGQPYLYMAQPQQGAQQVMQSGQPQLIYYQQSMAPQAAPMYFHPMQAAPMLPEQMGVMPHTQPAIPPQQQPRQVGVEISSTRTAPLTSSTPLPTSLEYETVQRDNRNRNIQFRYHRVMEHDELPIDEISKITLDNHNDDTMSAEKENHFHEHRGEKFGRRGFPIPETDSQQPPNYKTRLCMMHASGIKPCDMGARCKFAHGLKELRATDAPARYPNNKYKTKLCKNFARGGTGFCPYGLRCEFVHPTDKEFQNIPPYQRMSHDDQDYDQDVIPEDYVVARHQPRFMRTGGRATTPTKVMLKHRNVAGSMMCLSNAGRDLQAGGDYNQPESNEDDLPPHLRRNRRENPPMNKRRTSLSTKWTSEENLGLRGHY
# Large T antigen = Large T antigen (Simian virus 40, UniProt P03070); type: functional, Betapolyomavirus macacae;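 note: Confirmatory-stage PubChem screen for compounds that inhibit SV40 T antigen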
# Sequence of Large T antigen (P03070 whole entry): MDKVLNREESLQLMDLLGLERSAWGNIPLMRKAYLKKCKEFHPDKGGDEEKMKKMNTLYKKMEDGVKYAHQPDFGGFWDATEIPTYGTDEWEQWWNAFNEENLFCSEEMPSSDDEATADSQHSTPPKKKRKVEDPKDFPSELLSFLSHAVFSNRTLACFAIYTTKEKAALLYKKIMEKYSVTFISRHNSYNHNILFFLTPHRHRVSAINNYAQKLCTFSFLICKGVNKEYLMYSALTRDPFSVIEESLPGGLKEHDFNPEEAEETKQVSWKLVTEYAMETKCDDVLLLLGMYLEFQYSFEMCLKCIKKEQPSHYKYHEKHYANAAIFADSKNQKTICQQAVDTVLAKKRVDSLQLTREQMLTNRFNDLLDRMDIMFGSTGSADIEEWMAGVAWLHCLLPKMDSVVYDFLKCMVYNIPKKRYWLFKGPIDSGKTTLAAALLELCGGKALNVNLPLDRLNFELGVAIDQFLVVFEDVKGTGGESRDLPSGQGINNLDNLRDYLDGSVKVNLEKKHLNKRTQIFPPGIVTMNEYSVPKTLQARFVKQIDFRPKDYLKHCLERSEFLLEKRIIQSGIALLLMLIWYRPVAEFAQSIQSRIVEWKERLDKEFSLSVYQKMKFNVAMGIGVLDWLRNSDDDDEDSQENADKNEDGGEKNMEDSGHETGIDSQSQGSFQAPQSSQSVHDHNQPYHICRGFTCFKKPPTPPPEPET
# Cytochrome P450 3A4 [13] = molecular target: T1, Cytochrome P450 3A4
# T1 sequence (P08684 whole entry): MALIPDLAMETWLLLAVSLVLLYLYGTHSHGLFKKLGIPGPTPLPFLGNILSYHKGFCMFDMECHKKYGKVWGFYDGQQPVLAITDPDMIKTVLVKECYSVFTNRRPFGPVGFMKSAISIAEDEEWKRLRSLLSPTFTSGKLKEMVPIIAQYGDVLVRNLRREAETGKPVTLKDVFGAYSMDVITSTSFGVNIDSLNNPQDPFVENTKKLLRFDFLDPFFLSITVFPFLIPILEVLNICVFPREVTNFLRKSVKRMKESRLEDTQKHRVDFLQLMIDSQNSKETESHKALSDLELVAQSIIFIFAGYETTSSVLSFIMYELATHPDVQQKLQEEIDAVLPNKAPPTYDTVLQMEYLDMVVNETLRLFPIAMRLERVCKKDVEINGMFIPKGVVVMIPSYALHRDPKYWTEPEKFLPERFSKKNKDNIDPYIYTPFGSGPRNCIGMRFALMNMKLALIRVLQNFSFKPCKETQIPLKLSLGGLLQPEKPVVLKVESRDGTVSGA
smiles,measurement,setting,value
Cc1nc(C)c(/C(O)=C/c2nc3ccccc3oc2=O)s1,CC50,[1],> 40 µM (active)
same,IC50,cells [2],3.09 µM (active)
Cc1ncc(CN2CC=C(c3ccccc3)CC2)c(N)n1,AC50,Cytochrome P450 3A4 [3],25.1 µM (inconclusive)
Cc1cc(C)cc(N(C(=O)c2snc(C(N)=O)c2N)C(C(=O)NCC2CCCO2)c2ccc(C)o2)c1 (stereo unspecified),IC50,[4],> 20 µM (inactive)
CCn1c(SCc2nc(-c3ccc(OC)c(OC)c3)no2)nnc1-c1cccs1,IC50,[5],11.2 µM (active)
CCCc1nc(SCC(=O)Nc2nc3c(s2)CCCC3)c2ccccc2n1,IC50,Melanocortin receptor 4,> 64.6 µM (inactive)
same,IC50,[6],> 64.6 µM (inactive)
COC(=O)COc1ccc(-c2ccc(F)cc2)cc1C=O,IC50,cells [2],3.51 µM (active)
O=C1NN(c2ccccc2)C(=O)/C1=C\c1ccccc1OCC(=O)N1CCOCC1,IC50,Genome polyprotein,> 100 µM (active)
CN1C(=O)C2CN(CCc3ccccc3)CNC2N(C)C1=O (stereo unspecified),IC50,cells [7],> 29.9 µM (inactive)
same,EC50,cells [8],> 29.9 µM (inactive)
Cc1cc(C)c(NC(=O)C2CCCN2CCC(C)C)c(C)c1 (stereo unspecified),AC50,HeLa,> 52 µM (inactive)
O=C(CSc1nccc(O)n1)N1CCc2ccccc2C1,IC50,cells [7],> 29.9 µM (inactive)
same,EC50,cells [8],> 29.9 µM (inactive)
Cc1cnc(C)c(N2CCN(Cc3nc(-c4cccc(F)c4F)oc3C)CC2)n1,IC50,[5],15.1 µM (active)
CC(C)OCCCNc1nc2c(-c3ccccc3)nnn2c2ccccc12,IC50,[4],> 20 µM (inactive)
O=C1/C(=C/C=C/c2ccccc2)Oc2c1ccc(O)c2CN1CCN(CCO)CC1,CC50,[1],> 40 µM (active)
same,IC50,cells [2],23.3 µM (active)
O=C(Nc1ccc(F)c([N+](=O)[O-])c1)C1CC(=O)N(Cc2ccccc2)C1 (stereo unspecified),IC50,Melanocortin receptor 4,> 64.6 µM (inactive)
same,IC50,[6],> 64.6 µM (inactive)
C=CC(=O)OCCCCCCOC(=O)C=C,AC50,Cytochrome P450 3A4 [3],25.1 µM (inconclusive)
CC(NC(=O)c1ccc(F)cc1)c1ccc2c(c1)CCCC2 (stereo unspecified),IC50,[5],20.9 µM (active)
Cc1cccc(NC(=O)CSCC(=O)N(C)Cc2ccc(Cl)c(Cl)c2)c1,IC50,[9],> 100 µM (inactive)
COc1ccc(/C=C2/SC(=S)N(CC(=O)O)C2=O)cc1OCc1ccc(Cl)cc1,IC50,Genome polyprotein,> 100 µM (active)
CN(C)CCCN1C(=O)C(O)=C(C(=O)c2cc3ccccc3o2)C1c1ccccn1 (stereo unspecified),IC50,Melanocortin receptor 4,> 64.6 µM (inactive)
same,IC50,[6],> 64.6 µM (inactive)
C[C@@H]1CN([C@@H](C)CO)C(=O)CCCn2nncc2CO[C@@H]1CN(C)Cc1cccc(C(F)(F)F)c1,AC50,HeLa,> 52 µM (inactive)
CC(/C=C(\O)c1ccc(Br)cc1)=N/NC(=O)c1ccccc1,CC50,[1],22.2 µM (active)
O=C(O)c1cccc(N2C(=O)C=CC2=O)c1,IC50,[10],> 80 µM (inactive)
same,IC50,Genome polyprotein,76.9 µM (active)
CN1CCc2cc3c(cc2C(=O)Cc2ccc4c(c2C1)OCO4)OCO3,AC50,Cytochrome P450 3A4 [3],25.1 µM (inconclusive)
O=c1cc(-c2ccc(O)c(O)c2)oc2cc(O)cc(O)c12 [LUTEOLIN],IC50,Aminopeptidase N,22.9 µM (active)
same,EC50,[11],60.4 µM (active)
same,EC50,[12],31 µM (active)
same,IC50,Large T antigen,11.9 µM (active)
same,AC50,Cytochrome P450 3A4 [13],5.01 µM (inconclusive)
